Measured values from ChEMBL document CHEMBL1765077, “Nonterpenoid C15 acetogenins from Laurencia marilzae” (2011).

Columns and labels:
Format in all cases: functional
WiDr = assay: Antiproliferative activity against human WiDr cells after 48 hrs
T47D = assay: Antiproliferative activity against human T47D cells after 48 hrs
SW1573 = assay: Antiproliferative activity against human SW1573 cells after 48 hrs; settings: SW1573, 48 h
HeLa = assay: Antiproliferative activity against human HeLa cells after 48 hrs
HBL-100 = assay: Antiproliferative activity against human HBL100 cells after 48 hrs; settings: HBL-100, 48 h
A2780 = assay: Antiproliferative activity against human A2780 cells after 48 hrs; settings: A2780, 48 h

| Structure (SMILES) | GI50 (T47D) [µg/mL] | GI50 (SW1573) [µg/mL] | GI50 (HeLa) [µg/mL] | GI50 (A2780) [µg/mL] | GI50 (WiDr) [µg/mL] | GI50 (HBL-100) [µg/mL] |
| --- | --- | --- | --- | --- | --- | --- |
| C[C@H]1/C=C/C[C@H](Br)[C@@H]2C[C@@H](Cl)[C@@H](C[C@H](C=C=CBr)O1)O2 [OBTUSALLENE IV] | > 10 | > 10 | > 10 | > 10 | > 10 | > 10 |
| C/C=C/[C@H]1C/C=C\C[C@@H](Cl)[C@@H](C[C@@H](O)C=C=CBr)O1 [MARILZALLENE] | > 10 | > 10 | > 10 | > 10 | > 10 | > 10 |
| C[C@@H]1O[C@@H](C=C=CBr)C[C@H]2O[C@@H](C[C@H]2Cl)[C@@H](Br)C[C@H]2O[C@H]12 | > 10 | > 10 | > 10 | > 10 | > 10 | > 10 |

The next lines start with results.

| GI50 (T47D) [µg/mL] | GI50 (SW1573) [µg/mL] | GI50 (HeLa) [µg/mL] | GI50 (A2780) [µg/mL] | Structure (SMILES) | GI50 (WiDr) [µg/mL] | GI50 (HBL-100) [µg/mL] |
| --- | --- | --- | --- | --- | --- | --- |
| > 10 | > 10 | > 10 | > 10 | C/C=C/[C@H]1C/C=C\C[C@@H](Cl)[C@@H](C[C@H](C=C=CBr)OC(C)=O)O1 | > 10 | > 10 |
| > 10 | > 10 | > 10 | > 10 | COC(=O)/C=C\[C@H]1C[C@H]2O[C@@H](C[C@H]2Cl)[C@@H](Br)C[C@H]2O[C@@H]2[C@H](C)O1 | > 10 | > 10 |
| > 10 | > 10 | > 10 | > 10 | C#C/C=C\CC(O)C(Cl)C/C=C\CC(Cl)C(Br)CC (mixture of isomers) | > 10 | > 10 |
